We go through 28 molecules from patent US20260028365A1 (BIOGEN MA INC., priority 2022, published 2026).

Molecules are shown by their SMILES. Like-named read-outs stand apart in the source and are kept apart here.

The target of test [1] is JH2 domain of human Tyk2 (Homo sapiens (Human), UniProt P29597). In words: JH2 Biochemical Assay (TR-FRET probe displacement). It counts as binding. On the technique in general: Time-resolved FRET reads energy transfer from a long-lived donor to a nearby acceptor.
For test [2], the target named is Tyk2 (Homo sapiens (Human), UniProt P29597). Description: pSTAT4 Cell Assay (MSD, NK92 cells). The format is cell-based.
The mark [3] stands for this setting: TR-FRET probe displacement, JH2 domain.
Where [4] appears, read: JH2 domain of human Tyk2, TR-FRET probe displacement.
The mark [5] stands for this setting: TR-FRET probe displacement, JH2 domain of human Tyk2.

JH2 domain of human Tyk2, sequence (P29597 575-876): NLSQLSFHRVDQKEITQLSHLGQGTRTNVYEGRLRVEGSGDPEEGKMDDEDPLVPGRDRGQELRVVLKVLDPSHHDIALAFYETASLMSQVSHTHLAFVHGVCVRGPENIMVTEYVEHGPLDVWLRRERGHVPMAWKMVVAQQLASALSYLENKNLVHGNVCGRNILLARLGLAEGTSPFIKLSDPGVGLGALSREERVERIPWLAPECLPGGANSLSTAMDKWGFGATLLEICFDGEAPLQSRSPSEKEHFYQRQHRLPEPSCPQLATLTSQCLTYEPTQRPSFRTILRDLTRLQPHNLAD
Tyk2, sequence (P29597 whole entry, the tested form may be a part): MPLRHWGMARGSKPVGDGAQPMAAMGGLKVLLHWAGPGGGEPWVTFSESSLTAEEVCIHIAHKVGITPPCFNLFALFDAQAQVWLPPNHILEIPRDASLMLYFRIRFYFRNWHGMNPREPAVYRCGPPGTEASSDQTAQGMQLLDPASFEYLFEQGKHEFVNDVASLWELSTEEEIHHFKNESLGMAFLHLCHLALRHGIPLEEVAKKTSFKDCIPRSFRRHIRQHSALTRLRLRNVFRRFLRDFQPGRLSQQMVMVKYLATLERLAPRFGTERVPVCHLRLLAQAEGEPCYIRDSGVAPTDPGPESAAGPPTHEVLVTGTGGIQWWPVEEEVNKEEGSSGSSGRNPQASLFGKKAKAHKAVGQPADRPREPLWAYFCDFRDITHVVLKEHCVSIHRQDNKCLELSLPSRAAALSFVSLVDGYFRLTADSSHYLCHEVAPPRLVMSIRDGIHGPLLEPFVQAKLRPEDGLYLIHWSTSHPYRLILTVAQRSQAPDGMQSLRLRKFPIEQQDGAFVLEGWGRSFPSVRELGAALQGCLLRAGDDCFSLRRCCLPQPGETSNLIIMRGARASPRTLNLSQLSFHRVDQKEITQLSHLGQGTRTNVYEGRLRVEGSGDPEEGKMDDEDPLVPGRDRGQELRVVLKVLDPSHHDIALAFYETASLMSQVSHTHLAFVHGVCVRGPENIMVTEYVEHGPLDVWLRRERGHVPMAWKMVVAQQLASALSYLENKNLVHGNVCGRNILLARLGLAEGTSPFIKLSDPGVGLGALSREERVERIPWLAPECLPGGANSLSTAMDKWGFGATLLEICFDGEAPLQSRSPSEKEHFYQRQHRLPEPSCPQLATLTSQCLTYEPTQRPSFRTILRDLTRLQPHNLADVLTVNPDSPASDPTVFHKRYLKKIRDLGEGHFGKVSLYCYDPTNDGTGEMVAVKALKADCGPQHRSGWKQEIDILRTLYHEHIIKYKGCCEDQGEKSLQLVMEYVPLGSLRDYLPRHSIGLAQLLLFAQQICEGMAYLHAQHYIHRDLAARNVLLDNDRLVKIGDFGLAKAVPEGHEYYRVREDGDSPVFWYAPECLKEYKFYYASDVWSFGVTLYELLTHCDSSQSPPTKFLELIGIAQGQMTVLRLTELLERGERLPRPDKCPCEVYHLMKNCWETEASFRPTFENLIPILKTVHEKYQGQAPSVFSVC

As a reminder, the IC50 is the concentration needed to halve the response being measured. For `CC(=O)Nc1cc(Nc2ccnc(C(C)(F)F)n2)c(-c2ccc(N3CCCC3)nn2)cn1` [Example 845, N-(4-((2-(1,1-difluoroethyl)pyrimidin-4-yl)amino)-5-(6-(pyrrolidin-1-yl)pyridazin-3-yl)pyridin-2-yl)acetamide], the IC50 in test [1] (setting [3]) and in test [2] was not above 10 nM each time.

Consider `COc1cc(-c2cnc(NC(C)=O)cc2Nc2ccnc(C(C)(F)F)n2)ncc1F` [Example 699, N-(4′-((2-(1,1-difluoroethyl)pyrimidin-4-yl)amino)-5-fluorO4-methoxy-[2,3′-bipyridin]-6′-yl)acetamide], for which the IC50 in test [1] (setting [4]) was 10 to 100 nM; in test [2] (MSD), not below 1000 nM.

Turning to `CCOc1cnc(NC(C)=O)cc1Nc1cc(NC)nc(C(C)(F)F)n1` [Example 485, N-(4-((2-(1,1-difluoroethyl)-6-(methylamino)pyrimidin-4-yl)amino)-5-ethoxypyridin-2-yl)acetamide], the IC50 was not above 10 nM in test [1] (setting [4]) and 10 to 100 nM in test [2] (MSD).

Take `CC(=O)Nc1cc(Nc2cc(C)nc(C(C)(F)F)n2)c(-n2cc3c(n2)CCN(C)C3)cn1` [Example 277, N-(4-((2-(1,1-difluoroethyl)-6-methylpyrimidin-4-yl)amino)-5-(5-methyl-4,5,6,7-tetrahydro-2H-pyrazolo[4,3-c]pyridin-2-yl)pyridin-2-yl)acetamide]: the IC50 in test [1] (setting [5]) and in test [2] (MSD) was not above 10 nM throughout.

Take `CC(=O)Nc1cc(Nc2cccc(OC(F)F)n2)c(-c2ccncn2)cn1` [Example 171, N-(4-((6-(difluoromethoxy)pyridin-2-yl)amino)-5-(pyrimidin-4-yl)pyridin-2-yl)acetamide]: the IC50 in test [1] (setting [5]) is not above 10 nM; in test [2] (MSD) it was 100 to 1000 nM.

With `CC(=O)Nc1cc(Nc2cc(C)nc(C(C)(F)F)n2)c(OCC2(C#N)CC2)cn1` [Example 84, N-(5-((1-cyanocyclopropyl)methoxy)-4-((2-(1,1-difluoroethyl)-6-methylpyrimidin-4-yl)amino)pyridin-2-yl)acetamide], the IC50 was not above 10 nM in test [1] (setting [5]) and 10 to 100 nM in test [2] (MSD).

In the case of `COc1ccc(-c2cnc(NC(C)=O)cc2Nc2cccc(C(C)(F)F)n2)nn1` [Example 526, N-(4-((6-(1,1-difluoroethyl)pyridin-2-yl)amino)-5-(6-methoxypyridazin-3-yl)pyridin-2-yl)acetamide], the IC50 in test [1] (setting [4]) was not above 10 nM; in test [2] (MSD), 10 to 100 nM.

In the case of `CC(=O)Nc1cc(Nc2ccnc(C(C)(F)F)n2)c(-c2cnc(N(C)C)cn2)cn1` [Example 842, N-(4-((2-(1,1-difluoroethyl)pyrimidin-4-yl)amino)-5-(5-(dimethylamino)pyrazin-2-yl)pyridin-2-yl)acetamide], the 50% inhibitory concentration (IC50) in test [1] (setting [3]) was not above 10 nM; in test [2], 10 to 100 nM.

`CC(=O)Nc1cc(Nc2cc(C)nc(C(C)(C)F)n2)c(-c2ncc(F)cn2)cn1` [Example 723, N-(4-((2-(2-fluoropropan-2-yl)-6-methylpyrimidin-4-yl)amino)-5-(5-fluoropyrimidin-2-yl)pyridin-2-yl)acetamide]: the results for the IC50 in test [1] (setting [4]) and in test [2] (MSD) were not above 10 nM and 10 to 100 nM, respectively.

On to `COc1cnc(NC(C)=O)cc1Nc1cc(-c2cc(OC)c3nc(C)cn3c2)nc(C(C)(F)F)n1` [Example 401, N-(4-((2-(1,1-difluoroethyl)-6-(8-methoxy-2-methylimidazo[1,2-a]pyridin-6-yl)pyrimidin-4-yl)amino)-5-methoxypyridin-2-yl)acetamide], for which the figures for the IC50 in test [1] (setting [4]) and in test [2] (MSD) were not above 10 nM and 100 to 1000 nM, respectively.

As to `COc1nc(C)cc(-c2cnc(NC(C)=O)cc2Nc2ccnc(C(C)(F)F)n2)n1` [Example 164, N-(4-((2-(1,1-difluoroethyl)pyrimidin-4-yl)amino)-5-(2-methoxy-6-methylpyrimidin-4-yl)pyridin-2-yl)acetamide], the IC50 in test [1] (setting [5]) is not above 10 nM; in test [2] (MSD), 10 to 100 nM.

As for `COc1cnc(NC(C)=O)cc1Nc1cc(-c2ccc3nc(C)cn3n2)nc(C(C)(F)F)n1` [Example 399, N-(4-((2-(1,1-difluoroethyl)-6-(2-methylimidazo[1,2-b]pyridazin-6-yl)pyrimidin-4-yl)amino)-5-methoxypyridin-2-yl)acetamide], the 50% inhibitory concentration (IC50) is not above 10 nM in test [1] (setting [4]) and 10 to 100 nM in test [2] (MSD).

Take `CC(=O)Nc1cc(Nc2cc(C)nc(C(C)(F)F)n2)c(-c2ccnc(C)n2)cn1` [Example 174, N-(4-((2-(1,1-difluoroethyl)-6-methylpyrimidin-4-yl)amino)-5-(2-methylpyrimidin-4-yl)pyridin-2-yl)acetamide]: the IC50 in test [1] (setting [5]) and in test [2] (MSD) was not above 10 nM throughout.

`CC(=O)Nc1cc(Nc2cc(C)nc(C(C)(F)F)n2)c(-c2nnc(C(C)(C)C)s2)cn1` [Example 611, N-(5-(5-(tert-butyl)-1,3,4-thiadiazol-2-yl)-4-((2-(1,1-difluoroethyl)-6-methylpyrimidin-4-yl)amino)pyridin-2-yl)acetamide]: the IC50 in test [1] (setting [4]) and in test [2] (MSD) was not above 10 nM throughout.

Consider `CC(=O)Nc1cc(Nc2cc(C)nc(C(C)(F)F)n2)c(-c2cnc(N(C)C)cn2)cn1` [Example 225, N-(4-((2-(1,1-difluoroethyl)-6-methylpyrimidin-4-yl)amino)-5-(5-(dimethylamino)pyrazin-2-yl)pyridin-2-yl)acetamide], for which the figures for the IC50 in test [1] (setting [5]) and in test [2] (MSD) were not above 10 nM and 10 to 100 nM, respectively.

As for `CC(=O)Nc1cc(Nc2cc(C)nc(C(C)(C)F)n2)c(-c2cc3n(n2)CCOC3)cn1` [Example 530, N-(5-(6,7-dihydrO4H-pyrazolo[5,1-c][1,4]oxazin-2-yl)-4-((2-(2-fluoropropan-2-yl)-6-methylpyrimidin-4-yl)amino)pyridin-2-yl)acetamide], the IC50 in test [1] (setting [4]) and in test [2] (MSD) was not above 10 nM in each case.

As for `CC(=O)Nc1cc(Nc2cc(C)nc(C(C)(F)F)n2)c(-c2cc(CN(C)C)ccn2)cn1` [Example 740, N-(4′-((2-(1,1-difluoroethyl)-6-methylpyrimidin-4-yl)amino)-4-((dimethylamino)methyl)-[2,3′-bipyridin]-6′-yl)acetamide], the IC50 in test [1] (setting [4]) and in test [2] (MSD) was not above 10 nM each time.

As for `CC(=O)Nc1cc(Nc2cc(C)nc(C(C)(F)F)n2)c(Oc2ccnc(C(F)(F)F)n2)cn1` [Example 359, N-(4-((2-(1,1-difluoroethyl)-6-methylpyrimidin-4-yl)amino)-5-((2-(trifluoromethyl)pyrimidin-4-yl)oxy)pyridin-2-yl)acetamide], the IC50 in test [1] (setting [5]) and in test [2] (MSD) was not below 1000 nM each time.

For the molecule `CC(=O)Nc1cc(Nc2cc(C)nc(C(C)(F)F)n2)c(-c2ccsn2)cn1` [Example 761, N-(4-((2-(1,1-difluoroethyl)-6-methylpyrimidin-4-yl)amino)-5-(isothiazol-3-yl)pyridin-2-yl)acetamide], the IC50 in test [1] (setting [3]) is not above 10 nM; in test [2], not below 1000 nM.

Consider `CC(=O)Nc1cc(Nc2cc(C)nc(C(C)(F)F)n2)c(OCC2COCC(C)(C)O2)cn1` (centres unmarked) [Example 419, N-(4-((2-(1,1-difluoroethyl)-6-methylpyrimidin-4-yl)amino)-5-((6,6-dimethyl-1,4-dioxan-2-yl)methoxy)pyridin-2-yl)acetamide], for which the IC50 in test [1] (setting [4]) and in test [2] (MSD) was not above 10 nM throughout.

Turning to `CC(=O)Nc1cc(Nc2cc(C)nc(C(C)(F)F)n2)c(-c2ncc(C)cn2)cn1` [Example 595, N-(4-((2-(1,1-difluoroethyl)-6-methylpyrimidin-4-yl)amino)-5-(5-methylpyrimidin-2-yl)pyridin-2-yl)acetamide], the values for the concentration for half-maximal inhibition (IC50) in test [1] (setting [4]) and in test [2] (MSD) were not above 10 nM and 10 to 100 nM, respectively.

On to `CCc1cc(Nc2cc(NC(C)=O)ncc2-c2ccc(C#N)cn2)nc(C(C)(F)F)n1` [Example 583, N-(5-cyanO4′-((2-(1,1-difluoroethyl)-6-ethylpyrimidin-4-yl)amino)-[2,3′-bipyridin]-6′-yl)acetamide], for which the IC50 in test [1] (setting [4]) and in test [2] (MSD) was not above 10 nM in each case.

In the case of `CCc1cc(Nc2cc(NC(C)=O)ncc2-c2cnc(C(C)(C)O)cn2)nc(C(C)(F)F)n1` [Example 855, N-(4-((2-(1,1-difluoroethyl)-6-ethylpyrimidin-4-yl)amino)-5-(5-(2-hydroxypropan-2-yl)pyrazin-2-yl)pyridin-2-yl)acetamide], the IC50 in test [1] (setting [3]) and in test [2] was not above 10 nM each time.

As to `CCOc1cnc(NC(C)=O)cc1Nc1cc(OC2CC(C#N)C2)nc(C(C)(F)F)n1` (centres unmarked) [Example 463, N-(4-((6-(3-cyanocyclobutoxy)-2-(1,1-difluoroethyl)pyrimidin-4-yl)amino)-5-ethoxypyridin-2-yl)acetamide], the IC50 in test [1] (setting [4]) and in test [2] (MSD) was not above 10 nM in each case.

Consider `CC(=O)Nc1cc(Nc2cc(C)nc(C(C)(F)F)n2)c(-c2nc(C)cc(C#N)n2)cn1` [Example 657, N-(5-(4-cyanO6-methylpyrimidin-2-yl)-4-((2-(1,1-difluoroethyl)-6-methylpyrimidin-4-yl)amino)pyridin-2-yl)acetamide], for which the figures for the half-inhibitory concentration (IC50) in test [1] (setting [4]) and in test [2] (MSD) were 10 to 100 nM and 100 to 1000 nM, respectively.

`CC(=O)Nc1cc(Nc2ccnc(C(C)(C)F)n2)c(-c2cc(C)ncn2)cn1` [Example 198, N-(4-((2-(2-fluoropropan-2-yl)pyrimidin-4-yl)amino)-5-(6-methylpyrimidin-4-yl)pyridin-2-yl)acetamide]: the figures for the IC50 in test [1] (setting [5]) and in test [2] (MSD) were not above 10 nM and 10 to 100 nM, respectively.

`CC(=O)Nc1cc(Nc2cc(C)nc(C(C)(F)F)n2)c(OCC2CN(C(C)C)CCO2)cn1` (centres unmarked) [Example 503, N-(4-((2-(1,1-difluoroethyl)-6-methylpyrimidin-4-yl)amino)-5-((4-isopropylmorpholin-2-yl)methoxy)pyridin-2-yl)acetamide]: the IC50 was not above 10 nM in test [1] (setting [4]) and 10 to 100 nM in test [2] (MSD).

`COCCN(C)c1nnc(-c2cnc(NC(C)=O)cc2Nc2ccnc(C(C)(F)F)n2)s1` [Example 773, N-(4-((2-(1,1-difluoroethyl)pyrimidin-4-yl)amino)-5-(5-((2-methoxyethyl)(methyl)amino)-1,3,4-thiadiazol-2-yl)pyridin-2-yl)acetamide]: the IC50 in test [1] (setting [3]) and in test [2] was not above 10 nM each time.
